From US12433882B2, “Treatments for amyotrophic lateral sclerosis using dazucorilant” (Corcept Therapeutics Incorporated, priority 2022, dated 2025)
“Also recorded” adds a separate entry of the source.

Tests used:
androgen receptor = molecular target: T1, androgen receptor (Homo sapiens, UniProt P10275); experiment: Androgen receptor binding; details: 10 μM
T1 sequence (P10275 1-920): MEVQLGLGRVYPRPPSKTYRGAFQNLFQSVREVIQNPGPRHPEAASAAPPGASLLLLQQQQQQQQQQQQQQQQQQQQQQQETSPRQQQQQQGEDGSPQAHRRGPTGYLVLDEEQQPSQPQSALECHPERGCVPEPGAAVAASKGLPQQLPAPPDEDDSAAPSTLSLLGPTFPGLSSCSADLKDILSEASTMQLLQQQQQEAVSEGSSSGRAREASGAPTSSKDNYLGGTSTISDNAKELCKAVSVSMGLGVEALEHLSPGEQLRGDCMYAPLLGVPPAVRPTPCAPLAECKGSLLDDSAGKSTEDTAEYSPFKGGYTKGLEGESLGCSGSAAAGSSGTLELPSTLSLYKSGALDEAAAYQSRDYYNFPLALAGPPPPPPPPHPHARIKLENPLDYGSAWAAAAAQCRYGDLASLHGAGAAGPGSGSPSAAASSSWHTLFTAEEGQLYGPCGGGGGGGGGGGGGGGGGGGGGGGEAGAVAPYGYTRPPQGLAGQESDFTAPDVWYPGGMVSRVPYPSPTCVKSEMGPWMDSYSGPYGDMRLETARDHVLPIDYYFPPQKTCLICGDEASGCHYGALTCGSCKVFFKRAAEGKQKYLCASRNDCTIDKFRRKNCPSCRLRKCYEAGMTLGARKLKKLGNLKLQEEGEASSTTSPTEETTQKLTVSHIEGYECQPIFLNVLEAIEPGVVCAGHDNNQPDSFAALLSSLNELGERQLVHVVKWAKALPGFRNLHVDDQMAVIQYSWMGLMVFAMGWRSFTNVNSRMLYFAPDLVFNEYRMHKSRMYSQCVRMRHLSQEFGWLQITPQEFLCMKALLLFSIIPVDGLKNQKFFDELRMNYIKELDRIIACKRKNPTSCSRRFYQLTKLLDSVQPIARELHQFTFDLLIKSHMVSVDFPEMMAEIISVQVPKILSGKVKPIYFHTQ

[1] = Quantitative whole-body autoradiography (QWBA) study in rats; assay type: in vivo
Method: The in vivo distribution of dazucorilant was determined in a quantitative whole-body autoradiography (QWBA) study in rats. Following a single oral administration of ^14C-dazucorilant to male and female rats, radioactivity was steadily absorbed, with maximal tissue concentrations generally occurring at around 12 hours post-dose.

[2] = Safety and tolerability in healthy volunteers; assay type: in vivo
Method: (§2) An adaptive dose, double-blind, placebo-controlled study (NCT04249323, EudraCT 2019-004258-27) was conducted in 110 healthy male and female volunteers (18-60 years old; BMI 18-30 kg/m2; weight≤102 kg; “First In Human” (FIH) study).

estrogen receptor = experiment: Estrogen receptor binding; details: 10 μM
Method: (§1) Dazucorilant is selective for GR over other nuclear hormone receptors, and a range of other receptors, enzymes, and ion channels. For example, dazucorilant has high selectivity for GR relative to the progesterone receptor (PR), androgen receptor, and estrogen receptor, showing no significant binding to these receptors at a concentration of 10 μM (0%, 1.5% and […], respectively).

[3] = Brain penetration study, multiple oral dose PK in plasma and CSF; assay type: in vivo, human
Method: as §2

cortisol or ACTH levels = experiment: First In Human study Part 2, multiple doses: cortisol and ACTH levels; assay type: in vivo; details: part 2 of the FIH study
Method: as §2

GR [4] = molecular target: T2, GR (Homo sapiens, UniProt P04150); experiment: Inhibition of dexamethasone effect on TAT activity, human liver carcinoma cell line; assay type: cell-based; design: endogenous in cells; host or cells: human liver carcinoma cell line (probably HepG2, inferred); details: read-out: Ki, inhibition of dexamethasone effects on TAT activity
T2 sequence (P04150 1-777): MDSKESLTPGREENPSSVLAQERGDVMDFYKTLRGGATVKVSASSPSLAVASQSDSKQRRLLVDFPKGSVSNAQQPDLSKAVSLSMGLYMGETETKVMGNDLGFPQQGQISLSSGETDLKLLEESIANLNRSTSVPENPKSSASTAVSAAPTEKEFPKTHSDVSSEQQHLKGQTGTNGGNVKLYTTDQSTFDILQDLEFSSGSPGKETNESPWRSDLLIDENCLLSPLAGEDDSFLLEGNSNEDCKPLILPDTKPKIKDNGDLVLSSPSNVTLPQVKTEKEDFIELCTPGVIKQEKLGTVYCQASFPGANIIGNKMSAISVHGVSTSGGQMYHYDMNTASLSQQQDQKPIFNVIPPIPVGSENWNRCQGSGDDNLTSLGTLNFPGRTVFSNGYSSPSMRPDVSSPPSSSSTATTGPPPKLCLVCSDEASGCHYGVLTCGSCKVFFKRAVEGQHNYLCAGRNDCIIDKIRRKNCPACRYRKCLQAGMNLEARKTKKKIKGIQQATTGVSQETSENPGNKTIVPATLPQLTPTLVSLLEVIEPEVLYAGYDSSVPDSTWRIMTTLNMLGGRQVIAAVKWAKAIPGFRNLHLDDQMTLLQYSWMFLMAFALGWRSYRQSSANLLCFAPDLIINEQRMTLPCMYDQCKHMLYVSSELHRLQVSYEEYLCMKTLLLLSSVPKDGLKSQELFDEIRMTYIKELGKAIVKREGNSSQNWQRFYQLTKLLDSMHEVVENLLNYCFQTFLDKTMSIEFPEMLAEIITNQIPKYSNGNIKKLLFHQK
From the text: The term “glucocorticoid receptor modulator” (GRM) refers to any compound which modulates glucocorticoid binding to GR, or which modulates any biological response associated with the binding of GR to an agonist. For example, a GRM that acts as an agonist, such as dexamethasone, increases the activity of tyrosine aminotransferase (TAT) in HepG2 cells (a human liver hepatocellular carcinoma cell line; ECACC, UK). A GRM that acts as an antagonist, such as mifepristone, decreases the activity of tyrosine aminotransferase (TAT) in HepG2 cells.

GR [5] = molecular target: T2, GR; experiment: Dexamethasone-induced TAT activity in primary hepatocytes from humans; assay type: cell-based; design: endogenous in cells; host or cells: primary hepatocytes from humans
Method: as §1

[6] = first 24 hours after dosing, single oral dose, rats

For `O=C(c1ccccn1)[C@]12Cc3cnn(-c4ccc(F)cc4)c3C=C1CCN(S(=O)(=O)c1ccc(C(F)(F)F)cc1)C2` [dazucorilant, (R)-(1-(4-fluorophenyl)-6-((4-(trifluoromethyl)phenyl)sulfonyl)-4,4a, 5,6,7,8-hexahydro-1-H-pyrazolo[3,4-g]isoquinolin-4a-yl) (pyridin-2-yl)methanone], the “binding to androgen receptor” value (androgen receptor) was 1.5%, the “Tissue:blood ratio, brain” value [1, 6] was greater than 0.1 and the “Tissue:blood ratio, spinal cord” value [1, 6] was greater than 0.1. For the same compound, the “time of maximal tissue concentrations of radioactivity” value ([1]; single oral administration, male and female rats, post-dose) was “around 12 hours”, the “single doses considered safe and well tolerated” value ([2]; both, human, in vivo) was “up to 1000 mg” and the “serious or severe treatment-emergent adverse events” value ([2]; healthy volunteers) was “No serious or severe treatment-emergent adverse events were reported”. For the same compound, the “most common adverse events” value ([2]; human, in vivo) was “gastrointestinal, nervous system, musculoskeletal, and connective tissue disorders”, the safety concerns ([2]; human, in vivo) was “no significant safety concerns were identified” and the “severity of adverse events” value ([2]; human, in vivo) was “mild to moderate”. For the same compound, the “multiple doses considered safe” value ([2]; multiple doses QD) was “up to 300 mg QD”, the “multiple doses safe and generally well tolerated” value ([2]; multiple doses QD) was “up to 200 mg QD” and the “binding to estrogen receptor” value (estrogen receptor) was 37.5%. For the same compound, the “dose proportionality of exposures” value ([3]; 300 mg relative to 150 mg, daily for 14 days) was “greater than dose-proportional increase in dazucorilant exposures”, the “detection in the CSF” value ([3]; 1 week of QD dosing, 150 mg and 300 mg, fed) was “detectable in the CSF in all study participants” and the “time to steady state of exposure” value ([3]; QD dosing) was no more than 1 week. For the same compound, the “distribution to the cerebrospinal fluid (CSF)” value ([3]; oral administration, healthy volunteers) was “distribution of dazucorilant is observed in the cerebrospinal fluid; also recorded: distribution to the CSF was observed”, the “steady state exposures (Cmax, AUC0-24), 300 vs. 150 mg” value ([3]; steady state, QD dosing) was “approximately 4 fold” and the “effects on morning or evening cortisol or ACTH levels” value (cortisol or ACTH levels) was “no notable effects”. For the same compound, the Ki (GR [4]) was 14 nM and the “dexamethasone-induced increase in TAT activity” value (GR [5]) was “prevented the dexamethasone-induced increase in TAT activity”.
